Data as given in PubChem BioAssay (NCI).
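Cells were grown in 96-well plates and exposed to each compound for 48 hours at five concentrations; endpoints were interpolated linearly between bracketing concentrations, or set to the highest concentration if not reached. TGI: concentration producing complete growth inhibition.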 Where a SMILES comes first, the peptide text is derived from it. [ ]: non-standard residue; d: D form. The star is where a group is joined. Phe(4-NO2) = N[CH](Cc1ccc([N+](=O)[O-])cc1)C(=O)O; Boc = CC(C)(C)OC(=O)*

Experiments:
Experiment in all cases: NCI anticancer screen, dose series, 48 h
PC-3 prostate = tested on: PC-3 prostate
M14 melanoma = tested on: M14 melanoma
HS 578T breast = tested on: HS 578T breast
NCI-H460 lung = tested on: NCI-H460 lung
SNB-19 CNS = tested on: SNB-19 CNS
NCI-H226 lung = tested on: NCI-H226 lung
KM12 colon = tested on: KM12 colon
MALME-3M melanoma = tested on: MALME-3M melanoma
OVCAR-5 ovarian = tested on: OVCAR-5 ovarian
MDA-N = tested on: MDA-N
HT29 colon = tested on: HT29 colon
HCT-15 colon = tested on: HCT-15 colon
SF-295 CNS = tested on: SF-295 CNS
SK-MEL-28 melanoma = tested on: SK-MEL-28 melanoma
786-0 renal = tested on: 786-0 renal
MCF7 breast = tested on: MCF7 breast
MDA-MB-231 breast = tested on: MDA-MB-231 breast
COLO 205 colon = tested on: COLO 205 colon
T-47D breast = tested on: T-47D breast
SW-620 colon = tested on: SW-620 colon
SF-539 CNS = tested on: SF-539 CNS
RPMI-8226 leukemia = tested on: RPMI-8226 leukemia
RXF 393 renal = tested on: RXF 393 renal
SR leukemia = tested on: SR leukemia
U251 CNS = tested on: U251 CNS
LOX IMVI melanoma = tested on: LOX IMVI melanoma
IGROV1 ovarian = tested on: IGROV1 ovarian
DU-145 prostate = tested on: DU-145 prostate
MOLT-4 leukemia = tested on: MOLT-4 leukemia
A549 NSCLC = tested on: A549 NSCLC
MDA-MB-435 = tested on: MDA-MB-435
HL-60(TB) leukemia = tested on: HL-60(TB) leukemia
ACHN renal = tested on: ACHN renal
HOP-62 NSCLC = tested on: HOP-62 NSCLC
EKVX NSCLC = tested on: EKVX NSCLC
NCI-H23 lung = tested on: NCI-H23 lung
SN12C renal = tested on: SN12C renal
OVCAR-8 ovarian = tested on: OVCAR-8 ovarian
SNB-75 CNS = tested on: SNB-75 CNS
HOP-92 NSCLC = tested on: HOP-92 NSCLC
HCC-2998 colon = tested on: HCC-2998 colon
SK-MEL-5 melanoma = tested on: SK-MEL-5 melanoma
CAKI-1 renal = tested on: CAKI-1 renal
NCI-H522 lung = tested on: NCI-H522 lung
SF-268 CNS = tested on: SF-268 CNS
BT-549 breast = tested on: BT-549 breast
OVCAR-3 ovarian = tested on: OVCAR-3 ovarian
OVCAR-4 ovarian = tested on: OVCAR-4 ovarian
SK-OV-3 ovarian = tested on: SK-OV-3 ovarian
HCT-116 colon = tested on: HCT-116 colon
UO-31 renal = tested on: UO-31 renal
NCI/ADR-RES ovarian = tested on: NCI/ADR-RES ovarian
A498 renal = tested on: A498 renal
UACC-62 melanoma = tested on: UACC-62 melanoma
TK-10 renal = tested on: TK-10 renal
K-562 leukemia = tested on: K-562 leukemia
UACC-257 melanoma = tested on: UACC-257 melanoma
CCRF-CEM leukemia = tested on: CCRF-CEM leukemia

Measured: TGI

CNC(=O)CCC(NC(=O)OC(C)(C)C)C(=O)NC(Cc1ccc([N+](=O)[O-])cc1)C(=O)NCC(=O)NC (stereo unspecified) (Boc-Glu(NHMe)-[Phe(4-NO2)]-Gly-NHMe; configuration not given here)
not listed: UACC-257 melanoma | CCRF-CEM leukemia
> 100 µM: all other assays above

COc1cc(CNNC(N)=S)cc(OC)c1OC
not listed: OVCAR-4 ovarian | SK-OV-3 ovarian | UACC-62 melanoma
> 100 µM: all other assays above
